Laboratory results from patent US20230117034A1, “PYRAZOLOTRIAZINES” (Bayer Aktiengesellschaft, priority 2019, published 2023).
Where two headings read alike, the source gives them in different places.

Columns and labels:
[1] = system: Human tumour cells (cell line panel); assay: Proliferation assay: cell line panel (crystal violet, 4 days); format: cell-based; conditions: read-out: Result Category, IC50 (mean)
Excerpt: Human tumour cells were originally obtained from the American Type Culture Collection (ATCC), from Cell Line Services GmbH (CLS), from the Deutsche Sammlung von Mikroorganismen und Zellkulturen (DSMZ, German Collection of Microorganisms and Cell Cultures), from the Japanese Cancer Research Resources Bank (JCRB), from Public Health England, from the European Collection of Authenticated Cell Cultures (ECACC), from Asterand Biosciences, or from the National Cancer Institute (NCI). Cultivated tumour cells were plated at the density as indicated in Table 6 in 96-well multititer plates in 200 microL of their respective growth medium supplemented 10% fetal calf serum. After 24 hours, the cells of one plate (zero-point plate) were stained with crystal violet (see below), while the medium of the other plates was supplemented with the test substances in various concentrations (0 micromol/L, as well as in the range of 0.003-3 micromol/L; the final concentration of the solvent dimethyl sulfoxide was adjusted to 0.1%) using a Tecan HP D300 Digital Dispenser. The cells were incubated for 4 days in the presence of test substances. Cell proliferation was determined by staining the cells with crystal violet: the cells were fixed by adding 20 microL/measuring point of an 11% glutaric aldehyde solution for 15 minutes at room temperature. After three washing cycles of the fixed cells with water, the plates were dried at room temperature. The cells were stained by adding 100 microL/measuring point of a 0.1% crystal violet solution (pH 3.0). After three washing cycles of the stained cells with water, the plates were dried at room temperature. The dye was dissolved by adding 100 microL/measuring point of a 10% acetic acid solution. The extinction was determined by photometry at a wavelength of 595 nm. The change of cell number, in percent, was calculated by normalization of the measured values to the extinction values of the zero-point plate (=0%) and the extinction of the untreated (0 μM) cells (=100%). The […] values (inhibitory concentration at 50% of maximal effect) were determined by means of a 4 parameter fit.

[2] = system: BRCA1 mRNA expression in CAL-120 cells; assay: qRT-PCR assay: BRCA1 mRNA expression in CAL-120; format: cell-based; conditions: Homo sapiens; Inhibition of BRCA1 mRNA expression in CAL-120 cells; median; read-out: RTqPCR-CAL-120, IC50, BRCA1 (median)
Experimental: 3. qRT-PCR Assay: BRCA, ATR, MCL1 in MDA-MB-231, CAL-120
Tissue cultured human MDA-MB-231 human breast cancer cells were plated in 500 microL per well at 200,000 cells/well in a 24 well microtiter plate. After 24 h, the cells were exposed continuously for 24 h to test substances (substances were added with Tecan HP 0300 Dispenser). RNA was prepared using Qiagen RNeasy MiniKit (#74106), RNA was quantified using a NanoDrop Equipment, and 600 nano gamms of RNA was coverted to cDNA using a SuperScript VILO kit (Thermofisher #11755050) followed by qPCR amplification. BRCA1 and ATR gene expression was measured by RT-qPCR and normalised to GAPDH housekeeping gene expression. qPCR primer sets have been purchased from Thermo Fisher Scientific/Applied Biosystems: BRCA1, #Hs 01556193; ATR, #Hs 00992123; GAPDH, #Hs 03929097.

Brc1cnn2c(NCc3nc4ccccc4[nH]3)nc(N3CCOCC3)nc12 [Example 4, N-[(1H-benzimidazol-2-yl)methyl]-8-bromo-2-(morpholin-4-yl)pyrazolo[1,5-a][1,3,5]triazin-4-amine]
IC50 ([1]; A673, sarcoma, 5000 cells/well): ≤ 30 nM | IC50 ([1]; AU565, breast cancer, HER2 positive, 4000 cells/well): ≤ 30 nM | IC50 ([1]; BT-474, BT474, breast cancer, HER2 positive, 4000 cells/well): ≤ 30 nM | IC50 ([1]; BT-549, BT549, breast cancer, 4000 cells/well): ≤ 30 nM | IC50 ([1]; CAL-120, breast cancer, triple-negative, 4000 cells/well): ≤ 30 nM | IC50 ([1]; COV318, ovarian cancer, 4000 cells/well): ≥ 100 nM | IC50 ([1]; COV362, ovarian cancer, 4000 cells/well): ≥ 100 nM | IC50 ([1]; Calu-3, lung cancer, non-small cell, 4000 cells/well): 30 to 100 nM | IC50 ([1]; DLD-1, DLD1, colorectal cancer, 4000 cells/well): 30 to 100 nM | IC50 ([1]; DMS-79, DMS79, lung cancer, small cell, 5000 cells/well): 30 to 100 nM | IC50 ([1]; DU-145, DU145, prostate cancer, 3000 cells/well): ≥ 100 nM | IC50 ([1]; EFM-192A, EFM192A, breast cancer, HER2 positive, 4000 cells/well): 30 to 100 nM | IC50 ([1]; HCC70, breast cancer, triple-negative, 5000 cells/well): 30 to 100 nM | IC50 ([1]; HCC202, breast cancer, HER2 positive, 5000 cells/well): ≤ 30 nM | IC50 ([1]; HCC366, lung cancer, non-small cell, 4000 cells/well): 30 to 100 nM | IC50 ([1]; HCC1143, breast cancer, triple-negative, 4000 cells/well): ≤ 30 nM | IC50 ([1]; HCC1419, breast cancer, HER2 positive, 4000 cells/well): ≥ 100 nM | IC50 ([1]; HCC1599, breast cancer, triple-negative, 5000 cells/well): ≥ 100 nM | IC50 ([1]; HCC1806, breast cancer, triple-negative, 4000 cells/well): ≥ 100 nM | IC50 ([1]; HCC1937, breast cancer, triple-negative, 5000 cells/well): ≥ 100 nM | IC50 ([1]; HCC1954, breast cancer, HER2 positive, 4000 cells/well): ≤ 30 nM | IC50 ([1]; HCC2157, breast cancer, triple-negative, 5000 cells/well): ≤ 30 nM | IC50 ([1]; HCT-116, HCT116, colorectal cancer, 3000 cells/well): ≥ 100 nM | IC50 ([1]; HT-29, HT29, colorectal cancer, 2000 cells/well): ≤ 30 nM | IC50 ([1]; HT-144, melanoma, 4000 cells/well): ≥ 100 nM | IC50 ([1]; HUH-6clone5, liver cancer, 4000 cells/well): ≥ 100 nM | IC50 ([1]; HUH-7, liver cancer, 4000 cells/well): ≤ 30 nM | IC50 ([1]; HeLa, cervical cancer, 3000 cells/well): 30 to 100 nM | IC50 ([1]; JHH7, JHH-7, liver cancer, 4000 cells/well): ≤ 30 nM | IC50 ([1]; JHH-4, liver cancer, 4000 cells/well): 30 to 100 nM | IC50 ([1]; JIMT-1, JIMT1, breast cancer, HER2 positive, 4000 cells/well): ≤ 30 nM | IC50 ([1]; KYSE−410, estophageal cancer, 4000 cells/well): 30 to 100 nM | IC50 ([1]; LNCap, prostate cancer, 5000 cells/well): 30 to 100 nM | IC50 ([1]; Lovo, colorectal cancer, 4000 cells/well): 30 to 100 nM | IC50 ([1]; MCF7, breast cancer, 4000 cells/well): ≥ 100 nM | IC50 ([1]; MDA-MB-231, breast cancer, triple-negative, 4000 cells/well): ≤ 30 nM | IC50 ([1]; MDA-MB-361, breast cancer, HER2 positive, 5000 cells/well): 30 to 100 nM | IC50 ([1]; MDA-MB-436, breast cancer, triple-negative, 4000 cells/well): ≤ 30 nM | IC50 ([1]; MDA-MB-468, breast cancer, triple-negative, 4000 cells/well): ≤ 30 nM | IC50 ([1]; MKN-1, MKN1, gastric cancer, 4000 cells/well): 30 to 100 nM | IC50 ([1]; NCI-H23, lung cancer, non-small cell, 3000 cells/well): 30 to 100 nM | IC50 ([1]; NCI-H69, lung cancer, small cell, 4000 cells/well): 30 to 100 nM | IC50 ([1]; NCI-H82, lung cancer, small cell, 4000 cells/well): 30 to 100 nM | IC50 ([1]; NCI-H345, lung cancer, small cell, 5000 cells/well): 30 to 100 nM | IC50 ([1]; NCI-H446, lung cancer, small cell, 4000 cells/well): 30 to 100 nM | IC50 ([1]; NCI-H460, lung cancer, non-small cell, 3000 cells/well): ≥ 100 nM | IC50 ([1]; NCI-H526, lung cancer, small cell, 4000 cells/well): 30 to 100 nM | IC50 ([1]; NCI-H1155, lung cancer, non-small cell, 4000 cells/well): 30 to 100 nM | IC50 ([1]; NCI-H1299, lung cancer, non-small cell, 4000 cells/well): 30 to 100 nM | IC50 ([1]; NCI-H1623, lung cancer, non-small cell, 5000 cells/well): 30 to 100 nM | IC50 ([1]; NCI-H1734, lung cancer, non-small cell, 5000 cells/well): ≤ 30 nM | IC50 ([1]; NCI-H1793, lung cancer, non-small cell, 5000 cells/well): 30 to 100 nM | IC50 ([1]; NCI-H1836, lung cancer, small cell, 5000 cells/well): 30 to 100 nM | IC50 ([1]; NCI-H1838, lung cancer, non-small cell, 4000 cells/well): ≤ 30 nM | IC50 ([1]; NCI-H1975, lung cancer, non-small cell, 3000 cells/well): 30 to 100 nM | IC50 ([1]; NCI-H2009, lung cancer, non-small cell, 5000 cells/well): 30 to 100 nM | IC50 ([1]; NCI-H2029, lung cancer, small cell, 5000 cells/well): ≤ 30 nM | IC50 ([1]; NCI-H2030, lung cancer, non-small cell, 4000 cells/well): ≤ 30 nM | IC50 ([1]; NCI-H2405, lung cancer, non-small cell, 4000 cells/well): ≥ 100 nM | IC50 ([1]; NCI-N87, gastric cancer, 4000 cells/well): ≤ 30 nM | IC50 ([1]; OVCAR-3, OVCAR3, ovarian cancer, 5000 cells/well): 30 to 100 nM | IC50 ([1]; OVCAR-8, OVCAR8, ovarian cancer, 4000 cells/well): 30 to 100 nM | IC50 ([1]; PC-3, prostate cancer, 3000 cells/well): 30 to 100 nM | IC50 ([1]; PLC/PRF/5, liver cancer, 4000 cells/well): ≤ 30 nM | IC50 ([1]; SK-BR-3, breast cancer, HER2 positive, 5000 cells/well): ≤ 30 nM | IC50 ([1]; SK-HEP1, SK-HEP-1, liver cancer, 4000 cells/well): ≤ 30 nM | IC50 ([1]; SK-OV-3, ovarian cancer, 4000 cells/well): ≥ 100 nM | IC50 ([1]; SNU-449, SNU449, liver cancer, 4000 cells/well): 30 to 100 nM | IC50 ([1]; SUM149, breast cancer, triple-negative, 4000 cells/well): ≤ 30 nM | IC50 ([1]; SW480, colorectal cancer, 3000 cells/well): ≤ 30 nM | IC50 ([1]; SW-620, SW620, colorectal cancer, 3000 cells/well): ≤ 30 nM | IC50 ([1]; U2OS, U2-OS, sarcoma, 5000 cells/well): ≤ 30 nM | IC50 ([1]; U-251, U251MG, glioblastoma, 3000 cells/well): 30 to 100 nM | IC50 [2]: 7.06 nM
